Tested on: NHBE cells
Assay: Biolog metabolic array: substrate use by NHBE cells with or without CA09 infection
Type: cell-based, human
Conditions: for Substrate use, 590 nm absorbance normalized to zero hour, 1 hr: Biolog PMM2, 1 hr; for Substrate use, 590 nm absorbance normalized to zero hour, 5 hr: Biolog PMM2, 5 hr; for Substrate use, 590 nm absorbance normalized to zero hour, 7 hr: Biolog PMM2, 7 hr
[1] = Control (uninfected) NHBE cells
[2] = Virus (CA09-infected, MOI 1) NHBE cells
[3] = Virus: CA09-infected NHBE cells, MOI 1, Biolog PMM2
[4] = Virus (CA09, MOI 1) infected NHBE cells
[5] = Virus (CA09-infected NHBE cells, MOI 1)

## COC(=O)CCC(=O)O [Mono Methyl Succinate]
[1]
  590 nm absorbance normalized to zero hour (substrate use), 1 hr: 1.07
  590 nm absorbance normalized to zero hour (substrate use), 2 hr: 1.14
  590 nm absorbance normalized to zero hour (substrate use), 3 hr: 1.10
  590 nm absorbance normalized to zero hour (substrate use), 4 hr: 1.10
  590 nm absorbance normalized to zero hour (substrate use), 6 hr: 0.53
  590 nm absorbance normalized to zero hour (substrate use), 8 hr: 1.09
  590 nm absorbance normalized to zero hour (substrate use), 9 hr: 1.11
  590 nm absorbance normalized to zero hour (substrate use), 10 hr: 1.11
  590 nm absorbance normalized to zero hour (substrate use), 11 hr: 1.11
  Substrate use, 590 nm absorbance normalized to zero hour, 1 hr: 1.07
  Substrate use, 590 nm absorbance normalized to zero hour, 5 hr: 1.13
  Substrate use, 590 nm absorbance normalized to zero hour, 7 hr: 1.07
[2]
  590 nm absorbance normalized to zero hour (substrate use), 1 hr: 1.44
  590 nm absorbance normalized to zero hour (substrate use), 2 hr: 1.71
  590 nm absorbance normalized to zero hour (substrate use), 3 hr: 1.97
  590 nm absorbance normalized to zero hour (substrate use), 4 hr: 2.04
  590 nm absorbance normalized to zero hour (substrate use), 5 hr: 2.16
  590 nm absorbance normalized to zero hour (substrate use), 6 hr: 2.33
  590 nm absorbance normalized to zero hour (substrate use), 7 hr: 2.40
  590 nm absorbance normalized to zero hour (substrate use), 8 hr: 2.45
  590 nm absorbance normalized to zero hour (substrate use), 9 hr: 2.58
  590 nm absorbance normalized to zero hour (substrate use), 10 hr: 2.55
  590 nm absorbance normalized to zero hour (substrate use), 11 hr: 2.67
[3]
  590 nm absorbance normalized to zero hour (substrate use), 1 hr: 1.44
  590 nm absorbance normalized to zero hour (substrate use), 2 hr: 1.71
  590 nm absorbance normalized to zero hour (substrate use), 3 hr: 1.97
  590 nm absorbance normalized to zero hour (substrate use), 4 hr: 2.04
  590 nm absorbance normalized to zero hour (substrate use), 5 hr: 2.16
  590 nm absorbance normalized to zero hour (substrate use), 6 hr: 2.33
  590 nm absorbance normalized to zero hour (substrate use), 7 hr: 2.40
  590 nm absorbance normalized to zero hour (substrate use), 8 hr: 2.45
  590 nm absorbance normalized to zero hour (substrate use), 9 hr: 2.58
  590 nm absorbance normalized to zero hour (substrate use), 10 hr: 2.55
  590 nm absorbance normalized to zero hour (substrate use), 11 hr: 2.67

## CC(=O)N[C@H]1C(O)O[C@H](CO)[C@@H](O)[C@@H]1O (stereo partly drawn) [N-Acetyl-D-Glucosamine]
[1]
  590 nm absorbance normalized to zero hour (substrate use), 1 hr: 0.19
  590 nm absorbance normalized to zero hour (substrate use), 2 hr: 0.27
  590 nm absorbance normalized to zero hour (substrate use), 3 hr: 0.32
  590 nm absorbance normalized to zero hour (substrate use), 4 hr: 0.34
  590 nm absorbance normalized to zero hour (substrate use), 6 hr: 0.32
  590 nm absorbance normalized to zero hour (substrate use), 8 hr: 0.48
  590 nm absorbance normalized to zero hour (substrate use), 9 hr: 0.50
  590 nm absorbance normalized to zero hour (substrate use), 10 hr: 0.45
  590 nm absorbance normalized to zero hour (substrate use), 11 hr: 0.44
  Substrate use, 590 nm absorbance normalized to zero hour, 1 hr: 0.19
  Substrate use, 590 nm absorbance normalized to zero hour, 5 hr: 0.40
  Substrate use, 590 nm absorbance normalized to zero hour, 7 hr: 0.46
[4]
  Substrate use, 590 nm absorbance normalized to zero hour, 1 hr: 2.25
  Substrate use, 590 nm absorbance normalized to zero hour, 5 hr: 4.99
  Substrate use, 590 nm absorbance normalized to zero hour, 7 hr: 5.67
[2]
  590 nm absorbance normalized to zero hour (substrate use), 1 hr: 2.25
  590 nm absorbance normalized to zero hour (substrate use), 2 hr: 3.27
  590 nm absorbance normalized to zero hour (substrate use), 3 hr: 3.85
  590 nm absorbance normalized to zero hour (substrate use), 4 hr: 4.12
  590 nm absorbance normalized to zero hour (substrate use), 6 hr: 5.27
  590 nm absorbance normalized to zero hour (substrate use), 8 hr: 6.03
  590 nm absorbance normalized to zero hour (substrate use), 9 hr: 6.65
  590 nm absorbance normalized to zero hour (substrate use), 10 hr: 6.45
  590 nm absorbance normalized to zero hour (substrate use), 11 hr: 5.53

## CC(=O)N[C@@H]1C(O)O[C@H](CO)[C@@H](O)[C@@H]1O (stereo partly drawn) [N-Acetyl-D-Mannosamine]
[1]
  590 nm absorbance normalized to zero hour (substrate use), 1 hr: 0.90
  590 nm absorbance normalized to zero hour (substrate use), 2 hr: 0.77
  590 nm absorbance normalized to zero hour (substrate use), 3 hr: 0.71
  590 nm absorbance normalized to zero hour (substrate use), 4 hr: 0.68
  590 nm absorbance normalized to zero hour (substrate use), 6 hr: 0.65
  590 nm absorbance normalized to zero hour (substrate use), 8 hr: 0.63
  590 nm absorbance normalized to zero hour (substrate use), 9 hr: 0.58
  590 nm absorbance normalized to zero hour (substrate use), 10 hr: 0.67
  590 nm absorbance normalized to zero hour (substrate use), 11 hr: 0.66
  Substrate use, 590 nm absorbance normalized to zero hour, 1 hr: 0.90
  Substrate use, 590 nm absorbance normalized to zero hour, 5 hr: 0.68
  Substrate use, 590 nm absorbance normalized to zero hour, 7 hr: 0.61
[4]
  Substrate use, 590 nm absorbance normalized to zero hour, 1 hr: 1.40
  Substrate use, 590 nm absorbance normalized to zero hour, 5 hr: 2.60
  Substrate use, 590 nm absorbance normalized to zero hour, 7 hr: 2.89
[2]
  590 nm absorbance normalized to zero hour (substrate use), 1 hr: 1.40
  590 nm absorbance normalized to zero hour (substrate use), 2 hr: 1.88
  590 nm absorbance normalized to zero hour (substrate use), 3 hr: 2.13
  590 nm absorbance normalized to zero hour (substrate use), 4 hr: 2.22
  590 nm absorbance normalized to zero hour (substrate use), 6 hr: 2.70
  590 nm absorbance normalized to zero hour (substrate use), 8 hr: 3.09
  590 nm absorbance normalized to zero hour (substrate use), 9 hr: 3.29
  590 nm absorbance normalized to zero hour (substrate use), 10 hr: 3.34
  590 nm absorbance normalized to zero hour (substrate use), 11 hr: 3.55

## OC[C@H]1O[C@H](OC[C@H]2OC(O)(CO)[C@@H](O)[C@@H]2O)[C@H](O)[C@@H](O)[C@@H]1O (stereo partly drawn) [Palatinose]
[1]
  590 nm absorbance normalized to zero hour (substrate use), 0 hr: 1.00
  590 nm absorbance normalized to zero hour (substrate use), 1 hr: 1.31
  590 nm absorbance normalized to zero hour (substrate use), 2 hr: 1.79
  590 nm absorbance normalized to zero hour (substrate use), 3 hr: 1.68
  590 nm absorbance normalized to zero hour (substrate use), 4 hr: 1.81
  590 nm absorbance normalized to zero hour (substrate use), 6 hr: 2.44
  590 nm absorbance normalized to zero hour (substrate use), 8 hr: 2.16
  590 nm absorbance normalized to zero hour (substrate use), 9 hr: 2.14
  590 nm absorbance normalized to zero hour (substrate use), 10 hr: 1.94
  590 nm absorbance normalized to zero hour (substrate use), 11 hr: 1.44
  Substrate use, 590 nm absorbance normalized to zero hour, 1 hr: 1.31
  Substrate use, 590 nm absorbance normalized to zero hour, 5 hr: 2.10
  Substrate use, 590 nm absorbance normalized to zero hour, 7 hr: 2.18
Control (uninfected) NHBE cells, Biolog PMM2, 0 hr
  Substrate use, 590 nm absorbance normalized to zero hour, 0 hr: 1.00
[5]
  590 nm absorbance normalized to zero hour (substrate use), 0 hr: 1.00
  590 nm absorbance normalized to zero hour (substrate use), 1 hr: 0.18
  590 nm absorbance normalized to zero hour (substrate use), 2 hr: 0.24
  590 nm absorbance normalized to zero hour (substrate use), 3 hr: 0.28
  590 nm absorbance normalized to zero hour (substrate use), 4 hr: 0.29
  590 nm absorbance normalized to zero hour (substrate use), 5 hr: 0.34
  590 nm absorbance normalized to zero hour (substrate use), 6 hr: 0.36
  590 nm absorbance normalized to zero hour (substrate use), 7 hr: 0.38
  590 nm absorbance normalized to zero hour (substrate use), 8 hr: 0.41
  590 nm absorbance normalized to zero hour (substrate use), 9 hr: 0.45
  590 nm absorbance normalized to zero hour (substrate use), 10 hr: 0.46
  590 nm absorbance normalized to zero hour (substrate use), 11 hr: 0.50
[3]
  590 nm absorbance normalized to zero hour (substrate use), 0 hr: 1.00
  590 nm absorbance normalized to zero hour (substrate use), 1 hr: 0.18
  590 nm absorbance normalized to zero hour (substrate use), 2 hr: 0.24
  590 nm absorbance normalized to zero hour (substrate use), 3 hr: 0.28
  590 nm absorbance normalized to zero hour (substrate use), 4 hr: 0.29
  590 nm absorbance normalized to zero hour (substrate use), 5 hr: 0.34
  590 nm absorbance normalized to zero hour (substrate use), 6 hr: 0.36
  590 nm absorbance normalized to zero hour (substrate use), 7 hr: 0.38
  590 nm absorbance normalized to zero hour (substrate use), 8 hr: 0.41
  590 nm absorbance normalized to zero hour (substrate use), 9 hr: 0.45
  590 nm absorbance normalized to zero hour (substrate use), 10 hr: 0.46
  590 nm absorbance normalized to zero hour (substrate use), 11 hr: 0.50

Source: patent publication US11083725B2 (priority 2014, dated 2021)
